From article PMC5920042, “KH176 Safeguards Mitochondrial Diseased Cells from Redox Stress-Induced Cell Death by Interacting with the Thioredoxin System/Peroxiredoxin Enzyme Machinery” (Scientific Reports, 2018)

What was measured:
P4 cell line [1] = assay: Redox Stress Survival assay (BSO-induced cell death, Calcein AM viability); type: cell-based, human; conditions: for EC50: 24 h, P4 cells, 200 µM BSO
Procedure: Cells were seeded at a density of 4 × 10^3 cells/well into 96-wells black plates and incubated for 24 h. To induce redox stress, semi-logarithmic dilutions of buthionine sulphoximine (BSO, #B2515, Sigma Aldrich) up to 100 µM were added to the cells in culture medium and incubated for 24 h. Cell viability was assessed by quantification of cellular conversion of Calcein AM into fluorescent Calcein. Briefly, after having discarded the BSO containing medium, cells were washed once with M199 without phenol red and loaded with 2 µM Calcein AM (#65-0853-39, Affimetrix eBioscience) in M199 without phenol red for 25 min. At the end of the incubation period, the excess of the dye was washed with M199 without phenol red and Calcein fluorescence was measured with a scanning microplate reader (BMG FLUOstar Omega; Ex. 480 nm, Em. 520 nm). For compound screening and target identification measurements cells were treated with 200 µM BSO alone or in co-incubation with semi-logarithmic dilutions of the test compound. Additionally, where indicated, increasing doses of Auranofin (AFN, #BML-EI206-0100, Enzo) or Aurothioglucose (ATG, #A0606, Sigma Aldrich) were co-incubated with BSO and the test compound. In all cases, cell viability was assessed 24 h after the treatment.

P4 cell line [2] = assay: Radical-Scavenging Capacity assay (CM-H2DCFDA, H2O2 or KO2); type: cell-based, human; conditions: P4 cells, 100 µM H2O2 or 1 mM KO2 (text: KOH), 3 µM compound
Procedure: Cells were seeded at a density of 4 × 10^3 cells/well into 96-wells black plates. After 24 h the cells were loaded with 5 µM CM-H2DCFDA in M199 without phenol red for 20 min. The dye excess was washed with M199 without phenol red and immediately after, cells were treated acutely with different concentrations of the test compounds in M199 without phenol red. To generate radicals, 100 µM H2O2 or 1 mM KO2 were injected to the compound-treated cells and CM-DCF fluorescence was measured every 2 min for 70 cycles on a scanning microplate reader (BMG FLUOstar Omega; Ex. 480 nm, Em. 520 nm). The area under the generated curves was calculated using the Origin 6.1 software (OriginLab).

P4 cell line [3] = assay: GSH measurements (GSH-Glo) under BSO; type: cell-based, human; conditions: increasing BSO 24 h, 3 µM compound
Procedure: Cells were seeded at a density of 4 × 10^3 cells/well into 96-wells white plates (#655098, Greiner Bio-one). After 24 h the cells were treated with semi-logarithmic dilutions of BSO up to a concentration of 100 µM alone or in co-incubation with a fixed amount of the test compound. 24 h after the treatment, GSH levels were measured with the GSH-Glo™ Glutathione Assay (# V6911, Promega) according to the manufacturer instructions. Luminescence was measured on a scanning microplate reader (BMG FLUOstar Omega).

[4] = Single dose pharmacokinetics and bioavailability study; type: in vivo, male Sprague Dawley rats; conditions: male, Sprague Dawley, rat, plasma
Procedure: (§1) Pharmacokinetics and toxicokinetics measurements were performed by the commercial Contract Research Organizations Sai Life Sciences and WuXi AppTec, respectively, according to their standard protocols and in accordance with relevant guidelines and regulations. C57 BL/6 mice, Sprague Dawley rats, and Beagle dogs were studied.

[5] = 28-day repeat oral dose toxicity study, toxicokinetics; type: in vivo, Sprague Dawley rats; conditions: Sprague Dawley, rat, plasma, po; for AUC(0-t): read-out: AUC0–24 h; for Cmax: read-out: Cmax
Procedure: as §1

[6] = as above; type: in vivo, Beagle dogs; conditions: Beagle, dog, plasma, po; for AUC(0-t): read-out: AUC0–24 h; for Cmax: read-out: Cmax
Procedure: as §1

[7] = female, 25 mg/kg, KH176 25 mg/kg/dose BID oral, F, Day 1, plasma
[8] = female, 25 mg/kg, KH176 25 mg/kg/dose BID oral, F, Day 28, plasma
[9] = female, 75 mg/kg, KH176 75 mg/kg/dose BID oral, F, Day 1, plasma
[10] = female, 75 mg/kg, KH176 75 mg/kg/dose BID oral, F, Day 28, plasma
[11] = female, 250 mg/kg, KH176 250 mg/kg/dose BID oral, F, Day 1, plasma
[12] = female, 250 mg/kg, KH176 250 mg/kg/dose BID oral, F, Day 28, plasma
[13] = male, 25 mg/kg, KH176 25 mg/kg/dose BID oral, M, Day 1, plasma
[14] = male, 25 mg/kg, KH176 25 mg/kg/dose BID oral, M, Day 28, plasma
[15] = male, 75 mg/kg, KH176 75 mg/kg/dose BID oral, M, Day 1, plasma
[16] = male, 75 mg/kg, KH176 75 mg/kg/dose BID oral, M, Day 28, plasma
[17] = male, 250 mg/kg, KH176 250 mg/kg/dose BID oral, M, Day 1, plasma
[18] = male, 250 mg/kg, KH176 250 mg/kg/dose BID oral, M, Day 28, plasma
[19] = female, 10 mg/kg, KH176 10 mg/kg/dose BID oral, F, Day 1, plasma
[20] = female, 10 mg/kg, KH176 10 mg/kg/dose BID oral, F, Day 28, plasma
[21] = female, 62.5 mg/kg, KH176 62.5 mg/kg/dose BID oral, F, Day 1, plasma
[22] = female, 62.5 mg/kg, KH176 62.5 mg/kg/dose BID oral, F, Day 28, plasma
[23] = male, 10 mg/kg, KH176 10 mg/kg/dose BID oral, M, Day 1, plasma
[24] = male, 10 mg/kg, KH176 10 mg/kg/dose BID oral, M, Day 28, plasma
[25] = male, 62.5 mg/kg, KH176 62.5 mg/kg/dose BID oral, M, Day 1, plasma
[26] = male, 62.5 mg/kg, KH176 62.5 mg/kg/dose BID oral, M, Day 28, plasma

SMILES: Cc1c(C)c2c(c(C)c1O)CC[C@@](C)(C(=O)N[C@@H]1CCCNC1)O2.Cl [KH176, (S)-6-hydroxy-2,5,7,8-tetramethyl-N-((R)-piperidin-3-yl)chroman-2-carboxamide hydrochloride]
- EC50 (P4 cell line [1]; Homo sapiens): 0.269 µM
- EC50 (P4 cell line [1]): 0.27 µM
- Viability of patient cells under BSO (P4 cell line [1]; increasing BSO 24 h, 3 µM compound): fully protected
- Reduction of H2O2-induced radicals and O2.- (CM-H2DCFDA oxidation) (P4 cell line [2]): able to reduce the levels of both radicals
- GSH level under BSO (P4 cell line [3]): remained unaffected
- AUC(0-inf) ([4]; iv, KH176 2 mg/kg i.v.): 518 ng·h/mL
- AUC(0-t) ([4]; iv, KH176 2 mg/kg i.v.): 510 ng·h/mL
- clearance ([4]; iv, KH176 2 mg/kg i.v.): 64.6 mL/min/kg
- half-life ([4]; iv, KH176 2 mg/kg i.v.): 2.6 h
- C0 ([4]; iv, KH176 2 mg/kg i.v., back extrapolated): 344 ng/mL
- Vd ([4]; iv, KH176 2 mg/kg i.v., read-out: Vss): 7 L/kg
- bioavailability ([4]; oral, 10 mg/kg p.o. vs 2 mg/kg i.v., from AUClast, read-out: F (oral bioavailability)): 74%
- AUC(0-inf) ([4]; po, KH176 10 mg/kg p.o.): 1930 ng·h/mL
- AUC(0-t) ([4]; po, KH176 10 mg/kg p.o.): 1870 ng·h/mL
- Cmax ([4]; po, KH176 10 mg/kg p.o.): 594 ng/mL
- Tmax ([4]; po, KH176 10 mg/kg p.o., read-out: Tmax): 0.67 h
- half-life [5, 7]: 2.6 h
- AUC(0-t) [5, 7]: 12500 ng·h/mL
- Cmax [5, 7]: 1360 ng/mL
- half-life [5, 8]: 3.2 h
- AUC(0-t) [5, 8]: 19000 ng·h/mL
- Cmax [5, 8]: 2270 ng/mL
- half-life [5, 9]: 8.4 h
- AUC(0-t) [5, 9]: 42400 ng·h/mL
- Cmax [5, 9]: 3050 ng/mL
- half-life [5, 10]: 6 h
- AUC(0-t) [5, 10]: 76900 ng·h/mL
- Cmax [5, 10]: 5340 ng/mL
- AUC(0-t) [5, 11]: 104000 ng·h/mL
- Cmax [5, 11]: 6970 ng/mL
- AUC(0-t) [5, 12]: 243000 ng·h/mL
- Cmax [5, 12]: 13300 ng/mL
- half-life [5, 13]: 2.4 h
- AUC(0-t) [5, 13]: 10500 ng·h/mL
- Cmax [5, 13]: 979 ng/mL
- half-life [5, 14]: 5.6 h
- AUC(0-t) [5, 14]: 15600 ng·h/mL
- Cmax [5, 14]: 1600 ng/mL
- half-life [5, 15]: 4.5 h
- AUC(0-t) [5, 15]: 33100 ng·h/mL
- Cmax [5, 15]: 2860 ng/mL
- AUC(0-t) [5, 16]: 46200 ng·h/mL
- Cmax [5, 16]: 4210 ng/mL
- AUC(0-t) [5, 17]: 94000 ng·h/mL
- Cmax [5, 17]: 5890 ng/mL
- half-life [5, 18]: 8.3 h
- AUC(0-t) [5, 18]: 157000 ng·h/mL
- Cmax [5, 18]: 11200 ng/mL
- half-life [6, 19]: 1.4 h
- AUC(0-t) [6, 19]: 8840 ng·h/mL
- Cmax [6, 19]: 1150 ng/mL
- half-life [6, 20]: 2 h
- AUC(0-t) [6, 20]: 14600 ng·h/mL
- Cmax [6, 20]: 1540 ng/mL
- half-life [6, 7]: 1.8 h
- AUC(0-t) [6, 7]: 41900 ng·h/mL
- Cmax [6, 7]: 4150 ng/mL
- half-life [6, 8]: 2.5 h
- AUC(0-t) [6, 8]: 40000 ng·h/mL
- Cmax [6, 8]: 5190 ng/mL
- half-life [6, 21]: 1.7 h
- AUC(0-t) [6, 21]: 63100 ng·h/mL
- Cmax [6, 21]: 8150 ng/mL
- half-life [6, 22]: 2.3 h
- AUC(0-t) [6, 22]: 85500 ng·h/mL
- Cmax [6, 22]: 10200 ng/mL
- half-life [6, 23]: 1.4 h
- AUC(0-t) [6, 23]: 16400 ng·h/mL
- Cmax [6, 23]: 2030 ng/mL
- half-life [6, 24]: 1.8 h
- AUC(0-t) [6, 24]: 19000 ng·h/mL
- Cmax [6, 24]: 2330 ng/mL
- half-life [6, 13]: 1.8 h
- AUC(0-t) [6, 13]: 42600 ng·h/mL
- Cmax [6, 13]: 4290 ng/mL
- half-life [6, 14]: 2 h
- AUC(0-t) [6, 14]: 39900 ng·h/mL
- Cmax [6, 14]: 4540 ng/mL
- half-life [6, 25]: 1.8 h
- AUC(0-t) [6, 25]: 91500 ng·h/mL
- Cmax [6, 25]: 10100 ng/mL
- half-life [6, 26]: 2.4 h
- AUC(0-t) [6, 26]: 102000 ng·h/mL
- Cmax [6, 26]: 12600 ng/mL
